Assay results taken from paper PMC11645267, “Novel pharmacologic inhibition of lysine-specific demethylase 1 as a potential therapeutic for glioblastoma” (Cancer Gene Therapy, 2024).

Columns and labels:
GSC cells = assay: RNA-seq analysis of enhancer/super-enhancer related genes; type: cell-based, human; details: 5 μM, 96 h, relative to DMSO
Method: GSC cells treated with either DMSO (n = 4) or S2172 (5 μM, n = 4) for 96 h and total RNA was isolated with RNeasy mini kit (Qiagen). The RNA purity was determined using Agilent Tape Station (Agilent Technologies). Illumina TruSeq RNA sample preparation was conducted and the samples were run on an Illumina Hiseq XTen (Illumina). RNA-seq was aligned using HISAT2 under default setting to Homo Sapience hg38 [35]. TPM were generated using StringTie and differential expression analysis were performed using DESeq2 [37].
RNA-seq analysis was conducted to examine gene expression changes associated with super-enhancers/enhancers. Among the genes with de novo H3K4me2 modification, the average log2 fold changes (S2172 treatment relative to DMSO treatment) were −0.12 ± 0.03 for super-enhancer-related genes and −0.01 ± 0.01 for typical enhancer-related genes (P = 0.0004) (Supplementary Fig. S6B). In contrast, among the genes with increased H3K4me2 modification, the average log2 fold changes were −0.04 ± 0.01 for super-enhancer-related genes and −0.07 ± 001 for typical enhancer-related genes (P = 0.028) (Supplementary Fig. S6C).

[1] = test system: GSC1228 intracranial xenograft; assay: Intracranial xenograft mouse model inoculated with GSC1228 cells; type: in vivo, NOD/SCID mice
Method: All experiments were performed under protocols approved by the Institutional Animal Care and Use Committee of Nagoya University of Graduate School of Medicine. Cells (1 × 10^5 cells per mouse) were injected intracranially into 6-week-old female NOD/SCID mice (n = 20, SLC, Shizuoka, Japan). Four weeks after the injection, S2172 or DMSO were intravenously injected five days a week for 3 weeks (10 mg/kg per day, 15 injections in total). We used established guidelines to determine the sample size for the mouse experiments. The mice were assigned randomly to experimental and control groups. There was no blinding applied in the experiment.
We utilized intracranial xenograft mouse models inoculated with GSC1228 cells. After 30 days of inoculation, we administered S2172 intravenously at 10 mg/kg five times a week for three weeks. […] Following treatment with S2172 for one week, mice were sacrificed, and the xenograft glioma tissues were examined. The H3K4me2 level was increased in the tumor regions treated with S2172 (P < 0.01, Fig. 4B). Consistent with the in vitro analysis, the protein levels of Nestin and SOX2 were decreased in tumor tissues (Fig. 4C).
Fig. 4 S2172 eradicates tumor cells in GSC brain tumor mouse model. A Tumor volume was assessed by MRI after treatment with either DMSO or S2172 for 15 times. Error bars represent the SD. *P < 0.05. n = 7. B H3K4me2 level in the tumor tissue from the mouse brain (left panel). Quantification of western blot band signal intensity (right panel). The y-axis in the panel indicates the relative signal intensity of each protein normalized to histone H3. […] Quantification of western blot band signal intensity (right panel). […]
The density of bands was quantified using ImageJ software (https://imagej.nih.gov/ij/). […]
When mice were scanned with MRI, mice were anesthetized with isoflurane (3% in air) and placed in MRS 3017 Benchtop MRI Systems (MR Solutions, Guildford, UK). Using MRI images, tumor volumes were obtained by compiling tumor areas from all slices that contained tumors and calculated by ImageJ software (https://imagej.nih.gov/ij/) {Towner, […]

Structure (SMILES): NC1CCC(NC2CC2c2cc(F)cc(F)c2OCc2ccccc2)CC1 (stereo not shown) [S2172]
- average log2 fold change of expression, super-enhancer-related genes with de novo H3K4me2 (GSC cells): −0.12 ± 0.03
- average log2 fold change of expression, super-enhancer-related genes with increased H3K4me2 (GSC cells): −0.04 ± 0.01
- average log2 fold change of expression, typical enhancer-related genes with de novo H3K4me2 (GSC cells): −0.01 ± 0.01
- average log2 fold change of expression, typical enhancer-related genes with increased H3K4me2 (GSC cells): −0.07 ± 001
- tumor area (MRI; HE-stained tissue images) ([1]; 10 mg/kg intravenously five times a week for three weeks, P < 0.05 MRI, P < 0.01 HE): significantly smaller
- protein levels of Nestin and SOX2 in tumor tissues ([1]; after one week of treatment): decreased
- H3K4me2 level in tumor regions ([1]; after one week of treatment, P < 0.01): increased
